This note sets out measurements from patent US6476051B2, “Antipsychotic heterocycle compounds” (Bristol-Myers Squibb Company, priority 1999, dated 2002).

Structures can show the parent of a compound that is named as a salt.

In general, melting point refers to the temperature, or range, at which the solid turns liquid.

For `Cc1nc2cc(OCCCN3CC=C(c4c[nH]c5ccc(C#N)cc45)CC3)ccc2s1` (as salt: HCl) [Example 12, 5-{3-[4-(5-cyanoindol-3-yl)-1,2,5,6-tetrahydropyrid-1-yl]propoxy}-2-methylbenzothiazole], the melting point was in the range of 263 to 265 °C.
